According to patent US20240158446A1, “CYCLIC COMPOUND HAVING SELECTIVE INHIBITORY ACTION ON KRAS OVER HRAS AND NRAS” (CHUGAI SEIYAKU KABUSHIKI KAISHA, priority 2021, published 2024):
Like-named read-outs stand apart in the source and are kept apart here. Where a SMILES comes first, the peptide text is derived from it. Bridges are numbered along the chain shown (N, C = ends). [ ]: non-standard residue; d: D form. The star is where a group is joined. hPhe(3-Cl-4-CF3) = N[C@@H](CCc1ccc(C(F)(F)F)c(Cl)c1)C(=O)O; NPrPhe(4-CF3) = CCCN[C@@H](Cc1ccc(C(F)(F)F)cc1)C(=O)O; NMeGly(cPent) = CN[C@H](C(=O)O)C1CCCC1; Hyp = O=C(O)[C@@H]1C[C@@H](O)CN1; NMeD = CN[C@@H](CC(=O)O)C(=O)O; NMeL = CN[C@@H](CC(C)C)C(=O)O; Morpholide = C1CN(*)CCO1; NMeA = CN[C@@H](C)C(=O)O; Ac5c = NC1(C(=O)O)CCCC1; Aze = O=C(O)[C@@H]1CCN1; Ac4c = NC1(C(=O)O)CCC1; Sar = CNCC(=O)O

Assays:
[1] = biological target: GDP-bound NRAS wild-type protein (Homo sapiens, UniProt P01111); assay: Binding to NRAS by surface plasmon resonance (SPR), Single Cycle Kinetics; settings: for NRAS/KRAS (ratio of KD value for NRAS to KD value for KRAS) / NRAS/KRAS (ratio of KD value with respect to NRAS to KD value with respect to KRAS): SPR, GDP-bound NRAS wild-type protein vs GDP-bound KRAS wild-type protein
Sequence of GDP-bound NRAS wild-type protein (P01111 whole entry): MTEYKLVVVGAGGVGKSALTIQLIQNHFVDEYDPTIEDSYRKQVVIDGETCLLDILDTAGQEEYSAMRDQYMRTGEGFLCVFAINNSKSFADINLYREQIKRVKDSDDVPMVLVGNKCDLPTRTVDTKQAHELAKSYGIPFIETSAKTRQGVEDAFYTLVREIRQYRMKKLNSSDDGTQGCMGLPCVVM

[2] = biological target: GDP-bound KRAS wild-type protein (Homo sapiens, UniProt P01116); assay: Binding to KRAS by surface plasmon resonance (SPR), Single Cycle Kinetics; settings: GDP-bound KRAS wild-type protein, read-out: KRAS KD
Sequence of GDP-bound KRAS wild-type protein (P01116 whole entry): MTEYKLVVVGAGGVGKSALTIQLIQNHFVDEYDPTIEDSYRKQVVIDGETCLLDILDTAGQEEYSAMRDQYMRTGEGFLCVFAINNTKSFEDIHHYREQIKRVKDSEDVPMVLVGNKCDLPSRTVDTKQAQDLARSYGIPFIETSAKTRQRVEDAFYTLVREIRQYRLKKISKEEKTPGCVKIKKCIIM

[3] = biological target: GDP-bound HRAS wild-type protein (Homo sapiens, UniProt P01112); assay: Binding to HRAS by surface plasmon resonance (SPR), Single Cycle Kinetics; settings: for HRAS/KRAS (ratio of KD value for HRAS to KD value for KRAS) / HRAS/KRAS (ratio of KD value with respect to HRAS to KD value with respect to KRAS): SPR, GDP-bound HRAS wild-type protein vs GDP-bound KRAS wild-type protein
Sequence of GDP-bound HRAS wild-type protein (P01112 whole entry): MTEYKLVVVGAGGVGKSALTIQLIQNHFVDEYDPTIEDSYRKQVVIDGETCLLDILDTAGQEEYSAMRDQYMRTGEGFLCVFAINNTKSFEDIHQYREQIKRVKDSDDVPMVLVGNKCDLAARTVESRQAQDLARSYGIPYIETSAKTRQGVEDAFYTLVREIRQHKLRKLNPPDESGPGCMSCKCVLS

[4] = SPR Single Cycle Kinetics, 1:1 binding model
[5] = SPR, Single Cycle Kinetics, 1:1 binding model

Row | Compound | NRAS/KRAS (ratio of KD value for NRAS to KD value for KRAS) [1] | Kd [2, 4] | HRAS/KRAS (ratio of KD value for HRAS to KD value for KRAS) [3] | NRAS/KRAS (ratio of KD value with respect to NRAS to KD value with respect to KRAS) [1] | HRAS/KRAS (ratio of KD value with respect to HRAS to KD value with respect to KRAS) [3] | other results
1 | CCCN1C(=O)[C@@H]2CCN2C(=O)[C@H](C)N(C)C(=O)[C@H]([C@@H](C)CC)NC(=O)[C@H](CC(C)C)N(C)C(=O)C[C@@H](C(=O)N2CCOCC2)NC(=O)[C@H](C2CCCC2)N(C)C(=O)C2(CCCC2)NC(=O)[C@@H]2CCCN2C(=O)[C@H](CCc2ccc(C(F)(F)F)c(Cl)c2)NC(=O)CN(C)C(=O)[C@@H]1Cc1ccc(C(F)(F)F)cc1 [PP0343] ([NMeL]I[NMeA][Aze][NPrPhe(4-CF3)][Sar][hPhe(3-Cl-4-CF3)]P[Ac5c][NMeGly(cPent)]D-Morpholide; lactam N-11) | C (A compound having a KD ratio of 0.1 or more and less than 3 is denoted as C) | 1.3 nM | B (a compound having 3 or more and less than 10 is denoted as B) |  |  | 
2 | CC[C@H](C)[C@@H]1NC(=O)[C@H](C2CC2)N(C)C(=O)C[C@@H](C(=O)N(C)CC)N(C)C(=O)[C@H](C2CCCC2)N(C)C(=O)C2(CCC2)NC(=O)[C@@H]2C[C@H](C)CN2C(=O)[C@H](CCc2ccc(C(F)(F)F)c(OC)c2)NC(=O)CN(C)C(=O)[C@H](Cc2ccc(C(F)(F)F)cc2)N2CC/C=C\C[C@@H](C2=O)N(C)C(=O)CN(C)C1=O [PP2069] | AA (a compound having 20 or more is denoted as AA) |  | A (a compound having 10 or more and less than 20 is denoted as A) |  |  | Kd ([2]; SPR, Single Cycle Kinetics): 0.082 nM
3 | CCO[C@@H]1C[C@H]2C(=O)NC3(CCC3)C(=O)N(C)[C@@H](C3CCCC3)C(=O)N(C)[C@H](C(=O)N(C)C)CC(=O)N(C)[C@@H](CC(C)C)C(=O)N[C@@H]([C@@H](C)CC)C(=O)N3CC[C@H]3C(=O)N(C)[C@H]3CC(C)=C(C)CN(C3=O)[C@@H](Cc3ccc(C(F)(F)F)cc3)C(=O)N(C)CC(=O)N[C@@H](CCc3cc(F)c(C(F)(F)F)c(F)c3)C(=O)N2C1 [PP1047] | C (A compound having a KD ratio of 0.1 or more and less than 3 is denoted as C) |  | C (A compound having a KD ratio of 0.1 or more and less than 3 is denoted as C) |  |  | Kd ([2]; SPR, Single Cycle Kinetics): 0.85 nM
4 | C#CC[C@H]1C(=O)N[C@@H]([C@@H](C)CC)C(=O)N(C)CC(=O)N(C)[C@H]2CCCCN(C2=O)[C@@H](Cc2ccc(C(F)(F)F)cc2)C(=O)N(C)CC(=O)N[C@@H](CCc2cc(F)c(C(F)(F)F)c(F)c2)C(=O)N2C[C@H](OCC)C[C@H]2C(=O)NC2(CCC2)C(=O)N(C)[C@@H](C2CCCC2)C(=O)N(C)[C@H](C(=O)N(C)C)CC(=O)N1C [PP0696] |  | 0.012 nM |  | B (a compound having 3 or more and less than 10 is denoted as B) | B (a compound having 3 or more and less than 10 is denoted as B) | 
5 | CC[C@H](C)[C@@H]1NC(=O)[C@H](CC(C)C)N(C)C(=O)C[C@@H](C(=O)N2CCOCC2)N(C)C(=O)[C@H](C2CCCC2)N(C)C(=O)C2(CCC2)NC(=O)[C@]2(C)CCCN2C(=O)[C@H](CCc2cc(F)c(C(F)(F)F)c(F)c2)NC(=O)CN(C)C(=O)[C@H](Cc2ccc(C(F)(F)F)cc2)N2CCCC[C@@H](C2=O)N(C)C(=O)CN(C)C1=O [PP0808] |  | 0.027 nM |  | B (a compound having 3 or more and less than 10 is denoted as B) | B (a compound having 3 or more and less than 10 is denoted as B) | 
6 | C=CC[C@H]1C(=O)N[C@@H]([C@@H](C)CC)C(=O)N(C)CC(=O)N(C)[C@H]2CCCCN(C2=O)[C@@H](Cc2ccc(C(F)(F)F)cc2)C(=O)N(C)CC(=O)N[C@@H](CCc2cc(F)c(C(F)(F)F)c(F)c2)C(=O)N2C[C@H](OCC)C[C@H]2C(=O)NC2(CCC2)C(=O)N(C)[C@@H](C2CCCC2)C(=O)N(C)[C@H](C(=O)N(C)C)CC(=O)N1C [PP0695] |  | 0.015 nM |  | C (A compound having a KD ratio of 0.1 or more and less than 3 is denoted as C) | C (A compound having a KD ratio of 0.1 or more and less than 3 is denoted as C) | 
7 | CCO[C@@H]1C[C@H]2C(=O)NC3(CCC3)C(=O)N(C)[C@@H](C3CCCC3)C(=O)N(C)[C@H](C(=O)N(C)CCOC)CC(=O)N(C)[C@@H](CC)C(=O)N[C@@H]([C@@H](C)CC)C(=O)N(C)CC(=O)N(C)[C@H]3C/C=C\CCN(C3=O)[C@@H](Cc3ccc(C(F)(F)F)cc3)C(=O)N(C)CC(=O)N[C@@H](CCc3ccc4sccc4c3)C(=O)N2C1 [PP1322] |  |  |  |  |  | NRAS/KRAS (ratio of KD value for NRAS to KD value for KRAS) ([1]; KD ratio class): A (a compound having 10 or more and less than 20 is denoted as A); Kd [2, 5]: 0.59 nM; HRAS/KRAS (ratio of KD value for HRAS to KD value for KRAS) ([3]; KD ratio class): A (a compound having 10 or more and less than 20 is denoted as A)
8 | CCO[C@@H]1C[C@H]2C(=O)NC3(CCCC3)C(=O)N(C)[C@@H](C3CCCC3)C(=O)N(C)[C@H](C(=O)N(C)C)CC(=O)N(C)[C@@H](C)C(=O)N[C@@H]([C@@H](C)CC)C(=O)N(C)CC(=O)N(C)[C@H]3CCCCN(C3=O)[C@@H](Cc3ccc(C(F)(F)F)cc3)C(=O)N(C)CC(=O)N[C@@H](CCc3cc(F)c(C(F)(F)F)c(F)c3)C(=O)N2C1 [PP0586] |  | 0.01 nM |  | C (A compound having a KD ratio of 0.1 or more and less than 3 is denoted as C) | B (a compound having 3 or more and less than 10 is denoted as B) | 
9 | CCO[C@@H]1C[C@H]2C(=O)NC3(CCC3)C(=O)N(C)[C@@H](C3CCCC3)C(=O)N(C)[C@H](C(=O)N(C)C)CC(=O)N(C)[C@@H](Cc3cccc(F)c3)C(=O)N[C@@H]([C@@H](C)CC)C(=O)N(C)CC(=O)N(C)[C@H]3C/C=C\CCN(C3=O)[C@@H](Cc3ccc(C(F)(F)F)cc3)C(=O)N(C)CC(=O)N[C@@H](CCc3cc(F)c(C(F)(F)F)c(F)c3)C(=O)N2C1 [PP1126, (2S,8S,12R,14S,20S,23S,27S,30S,36S,38Z)-20-cyclopentyl-8-[2-[3,5-difluoro-4-(trifluoromethyl)phenyl]ethyl]-12-ethoxy-27-[(3-fluorophenyl)methyl]-N,N,4,19,22,26,32,35-octamethyl-30-[(1S)-1-methylpropyl]-3,6,9,15,18,21,25,28,31,34,42-undecaoxo-2-[[4-(trifluoromethyl)phenyl]methyl]spiro[1,4,7,10,16,19,22,26,29,32,35-undecazatricyclo[34.5.1.0^10,14]dotetracont-38-ene-17,1′-cyclobutane]-23-carboxamide] | A (a compound having 10 or more and less than 20 is denoted as A) |  | A (a compound having 10 or more and less than 20 is denoted as A) |  |  | Kd ([2]; SPR, Single Cycle Kinetics): 0.089 nM
10 | CC[C@H](C)[C@@H]1NC(=O)[C@H](CC2CC2)N(C)C(=O)C[C@@H](C(=O)N(C)CC)N(C)C(=O)[C@H](C2CCCC2)N(C)C(=O)C2(CCC2)NC(=O)[C@@H]2CC(F)(F)CN2C(=O)[C@H](CCc2cc(F)c(C(F)(F)F)c(F)c2)NC(=O)CN(C)C(=O)[C@H](Cc2ccc(C(F)(F)F)cc2)N2CC/C=C\C[C@@H](C2=O)N(C)C(=O)CN(C)C1=O [PP1538] |  |  |  |  |  | NRAS/KRAS (ratio of KD value for NRAS to KD value for KRAS) ([1]; KD ratio class): A (a compound having 10 or more and less than 20 is denoted as A); Kd [2, 5]: 0.086 nM; HRAS/KRAS (ratio of KD value for HRAS to KD value for KRAS) ([3]; KD ratio class): B (a compound having 3 or more and less than 10 is denoted as B)
11 | CCC(CC)[C@H]1C(=O)N(C)[C@H](C(=O)N(C)C)CC(=O)N(C)[C@@H](COC)C(=O)N[C@@H]([C@@H](C)CC)C(=O)N(C)CC(=O)N(C)[C@H]2C/C=C\CCN(C2=O)[C@@H](Cc2ccc(C(F)(F)F)cc2)C(=O)N(C)CC(=O)N[C@@H](CCc2cc(F)c(C(F)(F)F)c(F)c2)C(=O)N2CCCC[C@H]2C(=O)NC2(CC(C)(C)C2)C(=O)N1C [PP2916] |  | 1.3 nM |  |  |  | NRAS/KRAS (ratio of KD value with respect to GDP-bound NRAS wild-type protein to KD value with respect to KRAS) ([1]; SPR KD ratio NRAS/KRAS, class symbols): A (a compound having 10 or more and less than 20 is denoted as A); HRAS/KRAS (ratio of KD value with respect to GDP-bound HRAS wild-type protein to KD value with respect to KRAS) ([3]; SPR KD ratio HRAS/KRAS, class symbols): A (a compound having 10 or more and less than 20 is denoted as A)
12 | CCCN1C(=O)CN(C)C(=O)CN(C)C(=O)[C@H]([C@@H](C)CC)NC(=O)[C@H](CC(C)C)N(C)C(=O)C[C@@H](C(=O)N(C)C)N(C)C(=O)[C@H](C2CCCC2)N(C)C(=O)C2(CCC2)NC(=O)[C@@H]2C[C@@H](OCC)CN2C(=O)[C@H](CCc2ccc(C(F)(F)F)c(Cl)c2)NC(=O)CN(C)C(=O)[C@@H]1Cc1ccc(C(F)(F)F)cc1 [PP0416] ([NMeL]I[Sar][Sar][NPrPhe(4-CF3)][Sar][hPhe(3-Cl-4-CF3)][Hyp](Et)[Ac4c][NMeGly(cPent)][NMeD]-NMe2; lactam N-11) |  | 0.027 nM |  | B (a compound having 3 or more and less than 10 is denoted as B) | C (A compound having a KD ratio of 0.1 or more and less than 3 is denoted as C) | 
